From patent US20080045486A1, “OCULAR ADMINISTRATION OF TESTOSTERONE” (priority 2006, published 2008)

Legend:
[1] = 16-week dose-ranging study of testosterone ophthalmic solutions in patients with keratoconjunctivitis sicca, serum pharmacokinetics; type: in vivo, human; conditions: for increase of serum testosterone concentration over the endogenous baseline / concentration at 10 min: 10 minutes after dosing; for increase of serum testosterone concentration over the endogenous baseline: male patients; for concentration at 10 min: human, serum, other: ophthalmic solution, eye drop, one drop twice daily, female patients, baseline approximately 20 ng/dL
Protocol: Another clinical study entitled “A Multi-Center, Parallel, Randomized, Double-Masked, Vehicle-Controlled, Dose-Ranging Study to Evaluate the Safety, Tolerability and Efficacy of Testosterone 0.01%, 0.1%, and 0.3% Ophthalmic Solutions Administered Twice Daily for 16 weeks in Patients with Keratoconjunctivitis Sicca (KCS)” was conducted to determine the effectiveness of the ocular administration of testosterone in both women and men. This study was a randomized, multi-center, double-masked, parallel-group study of three treatment groups and one vehicle group. Patients were randomized to either 0.01%, 0.1%, 0.3% testosterone or vehicle of 0.3% testosterone ophthalmic solution. In the treatment phase, patients were instructed to instill one drop of the randomly assigned masked treatment twice daily (in the morning upon waking and before bedtime) for 16 weeks. Data from 135 patients (100 females and 35 males) were included in the pharmacokinetic data analysis. A single blood sample (20 mL) was taken from each patient pre-dose and at 10 minutes post dose on day 0, weeks 1, 4, 8, 12, and 16 for the determination of serum testosterone, dihydrotestosterone, 3-alpha-androstanediol glucuronide and sex hormone binding globulin concentrations. Serum concentrations of testosterone and dihydrotestosterone were determined by a validated gas chromatography-mass spectrometry (GC-MS) method with a quantitation range for DHT of 0.1 to 100 ng/dL and for testosterone of 1.0 to 1000 ng/dL. Serum concentrations of 3-alpha-androstanediol-glucuronide were quantitated by a validated radioimmunoassay method with a range of quantitation from 0.800 to 100 ng/mL, and serum concentrations of sex hormone binding globulin were determined using a validated two-site immunoradiometric assay (IRMA) method with a range of quantitation of 5 to 320 nmol/L for a 1:100 diluted sample.

[2] = Safety and pharmacokinetics study of testosterone ophthalmic solutions for up to 14 days in postmenopausal women; type: in vivo, human; conditions: for equivalent absorbed daily dose: assuming production rate 0.125 mg/day; for median Cmax of serum testosterone concentration: each eye twice daily, day 13, healthy postmenopausal women
Protocol: A clinical study entitled “A Single-Center, Double Masked, Parallel, Dose-Ranging, Vehicle Controlled Study Evaluating the Safety and Pharmacokinetics of Testosterone (0.03%, 0.1%, 0.3%, and 0.6%) Ophthalmic Solutions for up to 14 Days in Postmenopausal Women” was conducted to determine the effectiveness of the ocular administration of testosterone. This study was a randomized, single-center, double-masked, parallel-group study of five treatment groups, with each subject acting as their own baseline control for serum testosterone concentrations. Subjects received testosterone ophthalmic solution 0.03%, 0.1%, 0.3%, 0.6% or vehicle ophthalmic solution in each eye twice daily for 14 days. Each subject had blood withdrawn for the measurement of serum testosterone concentrations. On day 13, blood samples were taken prior to the morning dose (time 0), and at 5, 10, 20, 30, and 45 minutes, 1, 2, 4, 6, 8, and 12 hours post-dose. On day −1, blood samples were taken at the same time as day 13 to evaluate the baseline serum testosterone levels. On days −6, 7, 14, and 27, one blood sample was taken at the same time as day 13 predose draw to evaluate the trough serum testosterone levels (there were no dosing on days −6, −1, and 27). […] Serum testosterone concentrations were assayed using a validated double antibody radioimmunoassay method with a lower limit of quantitation (LLOQ) at 29 pg/mL or 2.9 ng/dL.

Compound: C[C@]12CC[C@H]3[C@@H](CCC4=CC(=O)CC[C@@]43C)[C@@H]1CC[C@@H]2O [testosterone, (17β)-17-Hydroxyandrost-4-en-3-one]
- increase of serum testosterone concentration over the endogenous baseline ([1]; 0.1% solution): 13%
- increase of serum testosterone concentration over the endogenous baseline ([1]; 0.3% solution): 36%
- safety concern from serum pharmacokinetic data ([1]; 4 month dosing period, 0.01%, 0.1% and 0.3% dose levels): did not indicate a safety concern
- concentration at 10 min ([1]; 0.01% solution): 0.35 ng/mL
- concentration at 10 min ([1]; 0.1% solution): 2 ng/mL
- concentration at 10 min ([1]; 0.3% solution): 3.5 ng/mL
- equivalent absorbed daily dose ([2]; 0.03% formulation BID both eyes): 0.024 mg
- average increase of serum testosterone level ([2]; 0.03% formulation, 50 μL BID to both eyes (0.06 mg/day)): 3.8 ng/dL
- median Cmax of serum testosterone concentration ([2]; 0.03% ophthalmic solution): 93.5 ng/dL
- equivalent absorbed daily dose ([2]; 0.1% formulation BID both eyes): 0.094 mg
- average increase of serum testosterone level ([2]; 0.1% formulation, 50 μL BID to both eyes (0.2 mg/day)): 15 ng/dL
- median Cmax of serum testosterone concentration ([2]; 0.1% ophthalmic solution): 193 ng/dL
- equivalent absorbed daily dose ([2]; 0.3% formulation BID both eyes): 0.15 mg
- average increase of serum testosterone level ([2]; 0.3% formulation, 50 μL BID to both eyes (0.6 mg/day)): 24 ng/dL
- median Cmax of serum testosterone concentration ([2]; 0.3% ophthalmic solution): 237 ng/dL
- equivalent absorbed daily dose ([2]; 0.6% formulation BID both eyes): 0.31 mg
- average increase of serum testosterone level ([2]; 0.6% formulation, 50 μL BID to both eyes (1.2 mg/day)): 49 ng/dL
- median Cmax of serum testosterone concentration ([2]; 0.6% ophthalmic solution): 457 ng/dL
- time for serum testosterone concentration to return to the baseline level ([2]; after dosing of testosterone ophthalmic solution): 12 h
- fraction of the peak serum level gone ([2]; in 2 hours after ophthalmical dosing): about 90%
